For three compounds, inhibition results are on record in US10669284B2, “Fused thiazolopyrimidine derivatives as MNKS inhibitors” (LIFEARC, priority 2015, dated 2020).

One may read the inhibition as the share of the control response that was lost under treatment.

One test concerns the target PAK7 (Homo sapiens, UniProt Q9P286). Put plainly: Kinase selectivity screen PAK7. The settings on record: read-out: % inhibition of PAK7.
The target of another test is PIM2 (Homo sapiens, UniProt Q9P1W9). Put plainly: Kinase selectivity screen PIM2. The settings on record: read-out: % inhibition of PIM2.
The next test deals with PIK3CG (Homo sapiens, UniProt P48736). Put plainly: Kinase selectivity screen PIK3CG. The settings on record: read-out: % inhibition of PIK3CG.
The next test deals with T1, STK11 (Homo sapiens, UniProt Q15831).
T1 sequence (Q15831 1-433): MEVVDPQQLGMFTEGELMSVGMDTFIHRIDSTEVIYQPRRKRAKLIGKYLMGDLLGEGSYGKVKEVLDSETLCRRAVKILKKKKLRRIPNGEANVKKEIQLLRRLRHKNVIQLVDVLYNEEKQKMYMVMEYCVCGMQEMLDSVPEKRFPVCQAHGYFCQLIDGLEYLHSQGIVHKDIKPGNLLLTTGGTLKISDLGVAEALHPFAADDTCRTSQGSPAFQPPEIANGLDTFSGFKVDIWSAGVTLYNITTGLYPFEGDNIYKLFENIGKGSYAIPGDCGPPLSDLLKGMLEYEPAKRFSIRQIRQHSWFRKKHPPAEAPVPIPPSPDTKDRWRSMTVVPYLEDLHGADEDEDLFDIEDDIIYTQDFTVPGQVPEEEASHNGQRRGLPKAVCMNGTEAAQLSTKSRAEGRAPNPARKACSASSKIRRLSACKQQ
T1 sequence (Q7RTN6 1-431 partner): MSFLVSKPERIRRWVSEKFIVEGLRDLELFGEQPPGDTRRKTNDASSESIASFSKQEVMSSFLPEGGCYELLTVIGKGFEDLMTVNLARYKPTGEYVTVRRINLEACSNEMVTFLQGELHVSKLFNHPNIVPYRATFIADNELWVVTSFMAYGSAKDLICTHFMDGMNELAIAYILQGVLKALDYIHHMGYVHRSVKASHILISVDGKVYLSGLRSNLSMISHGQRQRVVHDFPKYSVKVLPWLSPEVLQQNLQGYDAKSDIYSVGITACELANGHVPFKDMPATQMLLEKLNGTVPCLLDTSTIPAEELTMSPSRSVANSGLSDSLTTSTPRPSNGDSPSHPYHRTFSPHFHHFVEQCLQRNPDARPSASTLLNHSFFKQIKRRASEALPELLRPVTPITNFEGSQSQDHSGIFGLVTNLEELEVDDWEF
T1 sequence (Q9Y376 1-341 partner): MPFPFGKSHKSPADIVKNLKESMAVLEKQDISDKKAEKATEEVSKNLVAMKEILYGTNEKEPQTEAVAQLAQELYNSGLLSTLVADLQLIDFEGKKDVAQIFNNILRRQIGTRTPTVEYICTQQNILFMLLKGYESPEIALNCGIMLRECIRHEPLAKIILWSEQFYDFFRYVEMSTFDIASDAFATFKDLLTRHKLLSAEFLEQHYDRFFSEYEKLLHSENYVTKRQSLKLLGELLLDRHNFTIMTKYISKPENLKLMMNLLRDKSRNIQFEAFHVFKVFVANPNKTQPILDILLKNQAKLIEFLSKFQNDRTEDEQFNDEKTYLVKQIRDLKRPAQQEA
The test can be described thus: Kinase selectivity screen STK11. The settings on record: read-out: % inhibition of STK11.

The target of another test is T2, EPHB4 (Homo sapiens, UniProt P54760).
T2 sequence (P54760 16-987): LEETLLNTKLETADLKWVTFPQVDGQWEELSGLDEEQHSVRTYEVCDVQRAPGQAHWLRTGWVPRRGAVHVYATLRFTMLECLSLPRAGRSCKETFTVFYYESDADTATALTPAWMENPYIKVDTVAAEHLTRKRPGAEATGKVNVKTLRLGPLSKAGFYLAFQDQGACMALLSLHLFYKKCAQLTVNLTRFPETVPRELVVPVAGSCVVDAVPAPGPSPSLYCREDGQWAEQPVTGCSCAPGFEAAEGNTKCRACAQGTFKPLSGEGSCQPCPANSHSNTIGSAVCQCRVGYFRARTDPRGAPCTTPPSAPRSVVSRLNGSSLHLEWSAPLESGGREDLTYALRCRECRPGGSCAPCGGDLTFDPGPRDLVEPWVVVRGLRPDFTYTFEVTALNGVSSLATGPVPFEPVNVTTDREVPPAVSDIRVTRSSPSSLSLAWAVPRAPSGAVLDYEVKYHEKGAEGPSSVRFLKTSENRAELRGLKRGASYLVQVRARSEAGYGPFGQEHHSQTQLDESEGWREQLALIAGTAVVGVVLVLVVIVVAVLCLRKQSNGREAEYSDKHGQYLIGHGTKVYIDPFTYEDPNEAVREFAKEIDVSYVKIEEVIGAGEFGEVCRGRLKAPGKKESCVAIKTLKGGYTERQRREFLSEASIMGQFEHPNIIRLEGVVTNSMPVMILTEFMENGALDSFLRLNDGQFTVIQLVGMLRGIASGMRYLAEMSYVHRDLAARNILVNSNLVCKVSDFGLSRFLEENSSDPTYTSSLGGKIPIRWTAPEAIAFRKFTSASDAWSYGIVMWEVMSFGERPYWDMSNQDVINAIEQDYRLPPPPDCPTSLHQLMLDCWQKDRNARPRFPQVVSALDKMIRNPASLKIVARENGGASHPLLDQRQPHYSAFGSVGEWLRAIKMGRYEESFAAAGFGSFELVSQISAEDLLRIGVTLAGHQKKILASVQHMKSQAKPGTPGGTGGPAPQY
The test can be described thus: Kinase selectivity screen EPHB4. As to conditions: read-out: % inhibition of EPHB4.

PAK7, sequence (Q9P286 whole entry, species assumed): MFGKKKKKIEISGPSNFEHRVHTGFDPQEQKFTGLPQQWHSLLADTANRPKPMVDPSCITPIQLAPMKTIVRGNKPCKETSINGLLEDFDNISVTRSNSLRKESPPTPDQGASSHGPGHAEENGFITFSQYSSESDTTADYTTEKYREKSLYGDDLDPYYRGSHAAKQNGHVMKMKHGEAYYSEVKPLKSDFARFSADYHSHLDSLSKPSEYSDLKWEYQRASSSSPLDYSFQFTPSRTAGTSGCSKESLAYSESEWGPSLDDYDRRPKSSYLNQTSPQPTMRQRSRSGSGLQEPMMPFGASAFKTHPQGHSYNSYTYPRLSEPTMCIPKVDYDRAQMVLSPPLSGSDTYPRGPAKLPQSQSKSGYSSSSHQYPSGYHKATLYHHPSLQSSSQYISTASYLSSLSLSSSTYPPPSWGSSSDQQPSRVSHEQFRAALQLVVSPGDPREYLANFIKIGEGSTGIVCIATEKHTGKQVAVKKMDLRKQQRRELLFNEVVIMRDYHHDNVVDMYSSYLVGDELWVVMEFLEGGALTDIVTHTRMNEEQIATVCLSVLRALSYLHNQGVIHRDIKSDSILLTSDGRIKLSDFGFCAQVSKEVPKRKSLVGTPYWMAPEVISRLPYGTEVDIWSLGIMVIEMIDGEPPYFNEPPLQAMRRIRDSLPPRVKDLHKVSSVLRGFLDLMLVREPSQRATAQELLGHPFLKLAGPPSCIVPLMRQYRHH
PIM2, sequence (Q9P1W9 whole entry, species assumed): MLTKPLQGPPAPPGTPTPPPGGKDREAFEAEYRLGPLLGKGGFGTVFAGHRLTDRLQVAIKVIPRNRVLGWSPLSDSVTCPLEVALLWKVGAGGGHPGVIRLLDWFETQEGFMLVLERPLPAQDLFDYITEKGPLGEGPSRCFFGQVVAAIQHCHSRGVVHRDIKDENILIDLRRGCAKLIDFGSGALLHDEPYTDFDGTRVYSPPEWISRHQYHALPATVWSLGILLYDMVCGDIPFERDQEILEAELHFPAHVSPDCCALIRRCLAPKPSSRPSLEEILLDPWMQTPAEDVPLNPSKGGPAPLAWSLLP
PIK3CG, sequence (P48736 whole entry, species assumed): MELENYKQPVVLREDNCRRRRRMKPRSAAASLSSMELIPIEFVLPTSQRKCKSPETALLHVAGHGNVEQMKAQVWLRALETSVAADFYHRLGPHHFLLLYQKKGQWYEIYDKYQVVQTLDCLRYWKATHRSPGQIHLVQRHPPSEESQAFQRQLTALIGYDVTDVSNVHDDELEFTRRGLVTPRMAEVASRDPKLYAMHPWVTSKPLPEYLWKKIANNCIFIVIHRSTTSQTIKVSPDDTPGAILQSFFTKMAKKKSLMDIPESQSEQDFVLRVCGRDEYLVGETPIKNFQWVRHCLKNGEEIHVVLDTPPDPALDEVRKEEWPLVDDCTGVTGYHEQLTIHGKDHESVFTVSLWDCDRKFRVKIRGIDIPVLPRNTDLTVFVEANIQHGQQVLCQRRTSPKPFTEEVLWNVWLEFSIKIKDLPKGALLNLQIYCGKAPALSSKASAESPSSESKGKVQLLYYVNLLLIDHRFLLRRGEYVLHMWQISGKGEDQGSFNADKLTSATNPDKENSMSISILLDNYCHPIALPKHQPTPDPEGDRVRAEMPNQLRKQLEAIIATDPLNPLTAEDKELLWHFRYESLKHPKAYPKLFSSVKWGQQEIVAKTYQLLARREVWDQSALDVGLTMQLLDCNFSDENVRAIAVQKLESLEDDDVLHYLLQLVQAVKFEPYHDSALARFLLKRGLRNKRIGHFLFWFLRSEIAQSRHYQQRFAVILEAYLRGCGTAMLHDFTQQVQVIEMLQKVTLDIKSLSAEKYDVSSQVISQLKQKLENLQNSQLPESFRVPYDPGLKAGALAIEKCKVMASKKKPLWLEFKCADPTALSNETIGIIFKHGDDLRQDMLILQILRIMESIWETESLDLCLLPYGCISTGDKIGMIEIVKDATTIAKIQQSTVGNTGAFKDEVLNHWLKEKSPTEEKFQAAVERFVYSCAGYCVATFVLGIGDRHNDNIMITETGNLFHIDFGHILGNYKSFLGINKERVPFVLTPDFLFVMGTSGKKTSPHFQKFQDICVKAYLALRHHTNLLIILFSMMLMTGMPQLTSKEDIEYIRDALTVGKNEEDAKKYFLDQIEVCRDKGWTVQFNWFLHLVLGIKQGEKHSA

As to `CN(C)CCCNC(=O)c1nc2c(N3CCc4cc(F)ccc43)ncnc2s1` [Example 64, N-[3-(dimethylamino)propyl]-7-(5-fluoroindolin-1-yl)thiazolo[5,4-d]pyrimidine-2-carboxamide], the inhibition at 1 µM on PAK7 is 0%; at PIM2, 42%; on PIK3CG, 3%; at STK11 it was 10%; on EPHB4, 8%.

In the case of `CC(C)Oc1cc(F)ccc1Nc1ncnc2sc(C(=O)NCC3CCNCC3)nc12` [Example 10, 7-(4-fluoro-2-isopropoxy-anilino)-N-(4-piperidylmethyl)thiazolo[5,4-d]pyrimidine-2-carboxamide], the inhibition at 1 µM at PAK7 was found to be 1%; on PIM2, 7%; on PIK3CG, 6%; at STK11 it was 21%; at EPHB4, 4%.

`O=C(NCC1CCNCC1)c1nc2c(N3CCc4cc(F)ccc43)ncnc2s1` [Example 58, 7-(5-fluoroindolin-1-yl)-N-(4-piperidylmethyl)thiazolo[5,4-d]pyrimidine-2-carboxamide]: the inhibition at 1 µM was 0% at PAK7; 13% on PIM2; 0% at PIK3CG; 7% at STK11; 0% on EPHB4.
